{"source": "paper PMC10535856", "about": "“CD4^+ T Cell Responses to Toxoplasma gondii Are a Double-Edged Sword” (Vaccines, 2023)", "key": {"[1]": {"tested_on": "Toxoplasma gondii tachyzoites and encysted bradyzoites", "conditions": "cited from earlier work"}, "I-A^b [2]": {"biological_target": "T1, I-A^b (Mus musculus, UniProt P14434+P14483)", "T1 sequence (P14434 24-256)": "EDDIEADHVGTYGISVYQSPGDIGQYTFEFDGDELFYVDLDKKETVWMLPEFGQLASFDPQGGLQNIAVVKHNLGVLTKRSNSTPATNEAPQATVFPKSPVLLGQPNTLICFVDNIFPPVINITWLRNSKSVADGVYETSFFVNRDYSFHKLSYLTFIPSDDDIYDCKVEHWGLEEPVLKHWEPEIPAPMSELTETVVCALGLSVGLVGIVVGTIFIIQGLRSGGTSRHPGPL", "T1 sequence (P14483 28-265)": "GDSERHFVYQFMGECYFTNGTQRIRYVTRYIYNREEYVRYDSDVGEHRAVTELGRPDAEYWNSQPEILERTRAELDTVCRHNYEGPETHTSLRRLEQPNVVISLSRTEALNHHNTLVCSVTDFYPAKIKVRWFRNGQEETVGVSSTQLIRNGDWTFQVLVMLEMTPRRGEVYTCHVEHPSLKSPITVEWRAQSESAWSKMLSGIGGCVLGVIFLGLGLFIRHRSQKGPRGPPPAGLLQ", "set-up": "method as in PMID 7895164, PMID 32763137", "conditions": "cited from earlier work"}, "CD4^+ T cells": {"tested_on": "CD4^+ T cells", "conditions": "in vitro human PBMCs and in vivo mice; cited from earlier work", "source_text": "Vaccines that are composed of polypeptides that elicit epitope-restricted CD4^+ and CD8^+ T cells have the potential to induce an immune response against human toxoplasmic infection in humans. We are building a rational “immunosense” approach that utilizes epitope selection for peptides that can be presented by human major histocompatibility complexes (MHCs) to elicit protective CD8^+ and CD4^+ T cells. We have made considerable efforts to iden ..."}, "I-A^b [3]": {"biological_target": "T1, I-A^b", "experiment": "Competitive peptide binding to I-A^b", "conditions": "competitive binding study, procedure of ref 51; 'bound weakly'"}, "[4]": {"tested_on": "uninfected HLA-A*11:01 transgenic mice", "experiment": "Mortality and tolerability after boost immunization", "assay_type": "in vivo, mouse"}}, "note": "Where no end group is shown, it is not given here.", "data": [{"compound": "CCc1nc(N)nc(N)c1-c1ccc(Cl)cc1", "note": "[Pyrimethamine]", "values": [{"measurement": "Activity against actively replicating tachyzoites", "setting": "[1]", "value": "effective against actively replicating tachyzoites"}, {"measurement": "Elimination of encysted bradyzoites", "setting": "[1]", "value": "cannot eliminate encysted bradyzoites"}]}, {"compound": "Nc1ccc(S(=O)(=O)Nc2ncccn2)cc1", "note": "[sulfadiazine]", "values": [{"measurement": "Activity against actively replicating tachyzoites", "setting": "[1]", "value": "effective against actively replicating tachyzoites"}, {"measurement": "Elimination of encysted bradyzoites", "setting": "[1]", "value": "cannot eliminate encysted bradyzoites"}]}, {"compound": "AKFVAAWTLKAAA [PADRE]", "values": [{"measurement": "Affinity to I-A^b", "setting": "I-A^b [2]", "value": "relatively high affinity"}, {"measurement": "Generation of responsive CD4^+ T cells", "setting": "CD4^+ T cells", "value": "contributes to the generation of responsive CD4^+ T cells"}]}, {"compound": "AVEIHRPVPGTAPPS [AS15, AVEIHRPVPGTAPPS]", "values": [{"measurement": "IC50", "setting": "I-A^b [3]", "value": 413, "unit": "nM"}, {"measurement": "Harmful response to single components", "setting": "[4]; AS15 or GLA-SE alone", "value": "neither AS15 nor GLA-SE alone elicit this harmful response"}, {"measurement": "Overall effect in summary cartoon", "setting": "[4]; Figure S1, single components", "value": "No effect"}]}]}
